Experimental data taken from US10261090B2, “Glutathione-detecting fluorescent probe” (THE UNIVERSITY OF TOKYO, priority 2014, dated 2019).
Where two headings read alike, the source gives them in different places.

Tests used:
[1] = Fluorescence assay for glutathione: Kd from absorption/fluorescence change on glutathione addition; format: binding
Experimental: (§1) Glutathione was reacted with the fluorescent probe 2Me SiR600 (compound 1) synthesized in Example 1, and fluorescence assay was conducted. A Shimadzu UV-2450 (Shimadzu Corporation) and a Hitachi F-7000 (Hitachi, Ltd.) were used in ultraviolet-visible spectroscopy and fluorescence spectroscopy. A fluorescent probe was diluted to a final concentration of 1 μM in 0.2 M sodium phosphate buffer (pH 7.4), containing 0.1-1% DMSO. The absorption spectrum and fluorescence spectrum were measured when various concentration of glutathione was added in the range of 1 μM-100 mM. The excitation wavelength was 590 nm.

[2] = system: intracellular glutathione in cultured cancer cells; test: Cell imaging in cultured cancer cells by confocal microscope; format: cell-based; details: for change in fluorescence intensity ratio in cells: NEM addition, FIGS. 8 and 9
Experimental: Next, cell imaging in cultured cancer cells was conducted using compound 1 (2Me SiR600) as a fluorescent probe. Measurement was conducted using a confocal microscope.
Fluorescence imaging in cultured cancer cells was conducted in the same way as in Example 4 using compound 8 (2Me SiR600-TMR) as the fluorescent probe (FIG. 8).

[3] = Ultraviolet-visible and fluorescence spectroscopy of the probes; format: physicochemical; details: for Quantum yield: 0.2 M sodium phosphate buffer pH 7.4
Experimental: as §1

[4] = Table 1, dissociation constant for glutathione, calculated from changes in the fluorescence spectrum, pH 7.4, read-out: Kd
[5] = Table 1, 1 μM probe, 0.2 M sodium phosphate buffer pH 7.4, 0.1-1% DMSO
[6] = Table 2, dissociation constant for glutathione, same conditions as Example 2, read-out: Kd
[7] = Table 2, same conditions as Example 2

| SMILES | Kd [1, 4] | Absorption peak [nm] [3, 5] | Fluorescence peak [nm] [3, 5] | Quantum yield ([3]; Table 1) | Kd [1, 6] | Absorption peak [nm] [3, 7] | Fluorescence peak [nm] [3, 7] | Fluorescence quantum yield [3, 7] | also measured |
| --- | --- | --- | --- | --- | --- | --- | --- | --- | --- |
| Cc1ccccc1C1=C2C=CC(=N)C=C2[Si](C)(C)c2cc(N)ccc21 [Compound 1, 2Me SiR600] | 1100 µM | 593 nm | 613 nm | 0.38 | – | – | – | – | Kd ([1]; from values at absorption peak wavelength (593 nm) against glutathione concentration, read-out: dissociation constant Kd): 1000 µM; Kd ([1]; from values at fluorescence peak wavelength (614 nm) against glutathione concentration, excitation 590 nm, read-out: dissociation constant Kd): 1100 µM; change in fluorescence intensity in cells ([2]; glutathione depletion due to N-ethylmaleimide (NEM) addition, FIG. 4): an increase in fluorescence intensity was found |
| CN(C)c1ccc2c(c1)[Si](C)(C)C1=CC(=[N+](C)C)C=CC1=C2c1ccccc1 [Compound 2, Ph SiR650] | 900 µM | 645 nm | 668 nm | 0.14 | – | – | – | – | – |
| COc1ccccc1C1=C2C=CC(=[N+](C)C)C=C2[Si](C)(C)c2cc(N(C)C)ccc21 [Compound 3, 2OMe SiR650] | 41000 µM | 649 nm | 672 nm | 0.37 | – | – | – | – | – |
| CN(C)c1ccc2c(c1)[Si](C)(C)C1=CC(=[N+](C)C)C=CC1=C2c1ccccc1O [Compound 4, 2OH SiR650] | 43000 µM | 648 nm | 672 nm | 0.31 | – | – | – | – | – |
| CN(C)c1ccc2c(c1)[Si](C)(C)C1=CC(=[N+](C)C)C=CC1=C2c1ccccc1C#N [Compound 5, 2CN SiR650] | 1200 µM | 658 nm | 683 nm | 0.25 | – | – | – | – | – |
| COc1ccccc1C1=c2cc3c(cc2[Si](C)(C)c2cc4c(cc21)OCCN4C)=[N+](C)CCO3 [Compound 6, 2OMe OxaSiR diMe] | 700 µM | 699 nm | 740 nm | 0.08 | – | – | – | – | – |
| CN1CCOc2cc3c(cc21)[Si](C)(C)c1cc2c(cc1=C3c1ccccc1O)OCC[N+]=2C [Compound 7, 2OH OxaSiR diMe] | 900 µM | 699 nm | 739 nm | 0.07 | – | – | – | – | – |
| Cc1cc(C(=O)NC2CCC(NC(=O)c3ccc(-c4c5ccc(=[N+](C)C)cc-5oc5cc(N(C)C)ccc45)c(C(=O)[O-])c3)CC2)ccc1C1=C2C=CC(=N)C=C2[Si](C)(C)c2cc(N)ccc21 (stereo not drawn) [Compound 8, 2Me SiR600-TMR] | – | – | – | – | – | – | – | – | change in fluorescence intensity ratio in cells [2]: change in fluorescence intensity ratio observed |
| COC(=O)c1cc(C(=O)NC2CCC(NC(=O)c3ccc(C4=C5C=CC(=N)C=C5[Si](C)(C)c5cc(N)ccc54)c(C)c3)CC2)ccc1-c1c2ccc(=[N+](C)C)cc-2oc2cc(N(C)C)ccc12 (stereo not drawn) [Compound 9, 2Me SiR600-TMR(Me)] | – | – | – | – | – | – | – | – | change in fluorescence intensity ratio in cells [2]: change in fluorescence intensity ratio due to NEM addition was also observed |
| CCc1ccccc1C1=C2C=CC(=N)C=C2[Si](C)(C)c2cc(N)ccc21.O=C(O)C(F)(F)F [Compound 11] | – | – | – | – | 2300 µM | 592 nm | 614 nm | 0.44 | – |
| CN=C1C=CC2=C(c3ccccc3OC)c3ccc(NC)cc3[Si](C)(C)C2=C1.O=C(O)C(F)(F)F [Compound 16] | – | – | – | – | 16000 µM | 620 nm | 643 nm | 0.34 | – |
| CN=C1C=CC2=C(c3ccccc3O)c3ccc(NC)cc3[Si](C)(C)C2=C1.O=C(O)C(F)(F)F [Compound 17] | – | – | – | – | 21000 µM | 620 nm | 643 nm | 0.22 | – |
| CN(C)c1ccc2c(c1)[Si](C)(C)C1=CC(=[N+](C)C)C=CC1=C2c1ccccc1F [Compound 18] | – | – | – | – | 1300 µM | 655 nm | 677 nm | 0.19 | – |
| CN(C)c1ccc2c(c1)[Si](C)(C)C1=CC(=[N+](C)C)C=CC1=C2c1cccc(C(F)(F)F)c1 [Compound 21] | – | – | – | – | 600 µM | 650 nm | 673 nm | 0.20 | – |
| CN(C)c1ccc2c(c1)[Si](C)(C)C1=CC(=[N+](C)C)C=CC1=C2c1ccc(C(F)(F)F)cc1 [Compound 22] | – | – | – | – | 500 µM | 650 nm | 673 nm | 0.16 | – |
| CN(C)c1ccc2c(c1)[Si](C)(C)C1=CC(=[N+](C)C)C=CC1=C2c1ccccc1Cl [Compound 23] | – | – | – | – | 27000 µM | 655 nm | 676 nm | 0.30 | – |
| Cc1ccccc1C1=C2C=CC(=[N+](C)C)C=C2[Si](C)(C)c2cc(N)ccc21 [Compound 26] | – | – | – | – | 15000 µM | 620 nm | 643 nm | 0.14 | – |
| Cc1ccccc1C1=c2cc3c(cc2[Si](C)(C)c2cc4c(cc21)OCCN4C)=[N+](C)CCO3 [Compound 27] | – | – | – | – | 2100 µM | 695 nm | 738 nm | 0.06 | – |
